Experimental data: PMC8381248 (Frontiers in Pharmacology, 2021)
In brackets after ≈: the same amount, converted by molar mass.

What was measured:
[1] = Metabolic stability in rat liver microsomes; settings: for T1/2: 0.5 mg/ml microsomal protein, n = 2
Description: Then, this incubation plate containing mixed solution and NADPH regeneration system was agitated on a plate shaker at 100 rpm and pre-incubated at 37°C for 5 min. Subsequently, 300 μL of precooled quenching solution was added to each well of another deep-well plate (quench plate), which was cooled on ice. The solution in the incubation plate was transferred into the well of the quench plate as the samples in 0 min before it was mixed with another 20 µL of NADPH regeneration solution in the wells.
The incubation plate was incubated at 37°C for 0, 10, 30, and 90 min. At each time point, 100 μL of the supernatant in the incubation plate was removed from each well, quenched immediately, transferred to the wells of the ice-cold quench plate, and vortexed for 5 min. Additionally, an equal volume of pre-warmed fresh regeneration solution was added to the incubation plate for compensation after every withdrawal. […] Each test was operated in duplicate. The determination conditions of LC-MS/MS are shown in Support Materials (Supplementary Table S4).
The in vitro T1/2 was determined by converting the analyte/IS peak area ratios to percentage of drug remaining using the initial peak (t = 0 min) area ratio values as 100%.

[2] = Kinetic solubility test in PBS; type: physicochemical; settings: phosphate-buffer saline (PBS), aqueous buffer, kinetic from dmso stock; PBS (100 mM, pH 7.4)
Description: Internal standard (IS) solutions (propranolol and tolbutamide) were dissolved by acetonitrile (50 ng/ml propranolol + 200 ng/ml tolbutamide).
The sample solutions were analyzed using LC-MS/MS. All the samples (test samples and references) for detection were prepared in duplicate. The conditions for LC-MS/MS are shown in Support Materials (Supplementary Table S1).

[3] = tested on: PE-constricted aortic rings; assay: Vasorelaxant effects on isolated PE-constricted aortic rings; design: species or system SD rats; settings: 10^–6 M PE, n = 6
Description: SD rats were anesthetized by exposure to ether, and the thoracic aorta was removed and immersed in Krebs-Henseleit (K-H) buffer ([Lee et al., 2013]) at 4°C. The connective tissues and fats around the aorta were carefully removed under the microscopes, and the blood was flushed. The aorta ring was cut into four sections approximately 3 mm long and suspended in organ chambers containing K-H buffer. The endothelium was also removed by gently rubbing the lumen of the vessel with a cotton swab. The aortic rings were placed in a 5 ml organ chambers of DMT multiwire myograph system (620M, Danish Myo Technology, Denmark) and were filled with K-H buffer aerated with 95% O2 and 5% CO2 at 37°C. The aortic rings were mounted on hooks connected to a tension transducer and a displacement device.
The initial vessel tension was slowly adjusted to 15 mN and maintained balanced for 60 min. The buffer was renewed once every 15 min. After equilibration, the vessel viability was pre-constricted by exposing the aortic rings to 60 mM KCl for 10 min ([Ding et al., 2019]). Then, the K-H buffer was continuously renewed to elute and restore the initial tension of the vascular ring to assay the vascular activity. The pre-treated operation was repeated two times, where the constriction amplitude after each KCl stimulation to reach the previous constriction amplitude was taken as the criterion, before the experiment continued. Subsequently, 10^–6 M PE was added to contract the blood vessel. After the constriction was stable, different concentrations of Ach (10^−9–10^–5 M) were used to dilate the vessels. Then, the vasorelaxation degree could be calculated with different Ach concentrations, as the following equation: Vasorelaxation degree (%)=Maxium constriction tension induced by PE−Minium diastolic tension induced by Ach/Maxium constriction tension induced by PE−Resting tension×100% (10) When the vasorelaxation degree corresponding to Ach (10^–5 M) is greater than 80%, the vascular endothelium is considered intact and functional. The endothelium is considered to be removed with a vasorelaxation degree of less than 20% ([Lee et al., 2013]). Endothelium-intact and endothelium-denuded aortic rings from the same aorta were tested.
After equilibration, the endothelium-intact and the endothelium-denuded aortic rings were pre-constricted with 10^–6 M PE in the K-H buffer system.
After equilibration, the endothelium-intact aortic rings were pre-constricted with 10^–6 M PE in the K-H buffer system. […] Then, the corresponding vasoconstrictive responses were examined and recorded.
In the vasorelaxant effects investigations, all the data are presented as mean ± SEM. Statistical analysis was performed using two-way ANOVA followed by Fisher’s least significant difference (LSD) test. Values at p < 0.05 were considered statistically significant.

in vitro = settings: PAMPA
Description: Verapamil and digoxin solutions, used as reference, prepared in the same manner as the test drugs. Tolbutamide dissolved with acetonitrile (200 ng/ml) was used as IS.
The resultant supernatants were determined by LC-MS/MS. The specific assay conditions are shown in Support Materials (Supplementary Table S2).

## COc1ccc2[nH]c([S+]([O-])Cc3ncc(C)c(OC)c3C)nc2c1 (stereo not drawn) [Omeprazole, omeprazole, reference compound]
[1]; RLM with NADPH
  T1/2: 15.6 min

## CC(=O)N1CCN(c2ccc(OCC3COC(Cn4ccnc4)(c4ccc(Cl)cc4Cl)O3)cc2)CC1 (stereo not drawn) [ketoconazole, reference compound]
[2]
  solubility kinetic: 38.9 ± 1.54 µg/mL (≈ 73.2 µM)

## Pinoresinol [PINL]
[3]; increasing concentration 25–200 μM
  vasorelaxant effect on PE-constricted aortic rings: concentration-dependent vasorelaxation
[3]; PINL difference at 50–100 μM
  vasorelaxation degree, endothelium-denuded versus endothelium-intact group: significantly lower
[3]; endothelium-intact rings, PINL vs PDG at 50 μM, combination vs single at 25, 50 and 100 μM
  vasorelaxant response compared between groups: significantly better than in the PDG group

## COc1ccc2c(c1)[C@]13CCCC[C@@H]1[C@H](C2)N(C)CC3 [Dextromethorphan, dextromethorphan, reference compound]
[1]; HLM with NADPH
  T1/2: 63.8 min
[1]; human, microsomes
  microsomal CLint: 21.7 µL/min/mg

## C[C@H]1O[C@@H](O[C@H]2[C@@H](O)C[C@H](O[C@H]3[C@@H](O)C[C@H](O[C@H]4CC[C@@]5(C)[C@H](CC[C@@H]6[C@@H]5C[C@@H](O)[C@]5(C)[C@@H](C7=CC(=O)OC7)CC[C@]65O)C4)O[C@@H]3C)O[C@@H]2C)C[C@H](O)[C@@H]1O [Digoxin, digoxin, reference compound]
In vitro
  Papp at 18000 s: 0.589 ×10⁻⁶ cm/s

## COC(=O)C1=C(C)NC(C)=C(C(=O)OCCN(C)Cc2ccccc2)C1c1cccc([N+](=O)[O-])c1 (stereo not drawn) [nicardipine, reference compound]
[2]
  solubility kinetic: 9.94 ± 0.05 µg/mL (≈ 20.7 µM)
